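Growth conditions: 96-well plates. Treatment: test compound, 48 hours, 5 concentrations. Analysis: linear interpolation between bracketing concentrations; unreached endpoints set to highest concentration. The concentration for 50% growth inhibition is given as GI50.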 The source made the active and inactive calls. Rule as the data show it: active = GI50 up to about 1.1 µM and inactive = higher.
Key:
Experiment in all cases: inhibition of tumour cell growth, NCI panel, 48 h
SF-295 = test system: SF-295
SK-MEL-28 = test system: SK-MEL-28
SNB-75 = test system: SNB-75
SF-539 = test system: SF-539
A498 = test system: A498
UACC-257 = test system: UACC-257
MOLT-4 = test system: MOLT-4
A549 = test system: A549
RPMI-8226 = test system: RPMI-8226
HOP-92 = test system: HOP-92
UACC-62 = test system: UACC-62
DMS-114 = test system: DMS-114
COLO 205 = test system: COLO 205
SK-MEL-5 = test system: SK-MEL-5
OVCAR-4 = test system: OVCAR-4
SK-OV-3 = test system: SK-OV-3
K562 = test system: K562
XF498 = test system: XF498
EKVX = test system: EKVX
HCC 2998 = test system: HCC 2998
U-251 = test system: U-251
SNB-78 = test system: SNB-78
NCI/ADR-RES = test system: NCI/ADR-RES
Malme-3M = test system: Malme-3M
HCT-116 = test system: HCT-116
HL-60 = test system: HL-60
MCF7 = test system: MCF7
OVCAR-8 = test system: OVCAR-8
UO-31 = test system: UO-31
RXF 393 = test system: RXF 393
CAKI-1 = test system: CAKI-1
LOX IMVI = test system: LOX IMVI
SN12C = test system: SN12C
HCT-15 = test system: HCT-15
HOP-18 = test system: HOP-18
HOP-62 = test system: HOP-62
CCRF-CEM = test system: CCRF-CEM
NCI-H522 = test system: NCI-H522
OVCAR-5 = test system: OVCAR-5
HT-29 = test system: HT-29
NCI-H460 = test system: NCI-H460
SW-620 = test system: SW-620
SF-268 = test system: SF-268
KM12 = test system: KM12
DMS-273 = test system: DMS-273
OVCAR-3 = test system: OVCAR-3
NCI-H226 = test system: NCI-H226
NCI-H23 = test system: NCI-H23
SNB-19 = test system: SNB-19
SK-MEL-2 = test system: SK-MEL-2
IGROV-1 = test system: IGROV-1
KM-20L2 = test system: KM-20L2
DLD-1 = test system: DLD-1
M19-MEL = test system: M19-MEL
M14 = test system: M14
ACHN = test system: ACHN
786-0 = test system: 786-0
SR = test system: SR
TK-10 = test system: TK-10

`CCN(CC)CCCOC(=O)/C=C/c1c(C)[nH]c(=O)[nH]c1=O` was tested, and the GI50 (SF-295) was 525 µM (inactive), the GI50 (SK-MEL-28) was > 625 µM (inactive) and the GI50 (SNB-75) was > 625 µM (inactive). For the same molecule, the GI50 (SF-539) was > 625 µM (inactive), the GI50 (A498) was > 95.1 µM (inactive) and the GI50 (UACC-257) was > 625 µM (inactive). The GI50 (MOLT-4) was > 625 µM (inactive), the GI50 (A549) was > 625 µM (inactive) and the GI50 (RPMI-8226) was > 625 µM (inactive). The GI50 (HOP-92) was 56.9 µM (inactive), the GI50 (UACC-62) was > 625 µM (inactive) and the GI50 (DMS-114) was > 625 µM (inactive). The GI50 (COLO 205) was > 625 µM (inactive), the GI50 (SK-MEL-5) was > 625 µM (inactive) and the GI50 (OVCAR-4) was > 394 µM (inactive). For the same molecule, the GI50 (SK-OV-3) was > 625 µM (inactive), the GI50 (K562) was > 625 µM (inactive) and the GI50 (XF498) was > 625 µM (inactive). For the same molecule, the GI50 (EKVX) was > 625 µM (inactive), the GI50 (HCC 2998) was > 625 µM (inactive) and the GI50 (U-251) was > 625 µM (inactive). The GI50 (SNB-78) was 542 µM (inactive), the GI50 (NCI/ADR-RES) was > 625 µM (inactive) and the GI50 (Malme-3M) was > 625 µM (inactive). The GI50 (HCT-116) was > 625 µM (inactive), the GI50 (HL-60) was > 625 µM (inactive) and the GI50 (MCF7) was > 625 µM (inactive). For the same molecule, the GI50 (OVCAR-8) was 135 µM (inactive), the GI50 (UO-31) was > 625 µM (inactive) and the GI50 (RXF 393) was > 99.1 µM (inactive). For the same molecule, the GI50 (CAKI-1) was > 625 µM (inactive), the GI50 (LOX IMVI) was > 625 µM (inactive) and the GI50 (SN12C) was > 243 µM (inactive). For the same molecule, the GI50 (HCT-15) was > 625 µM, the GI50 (HOP-18) was > 625 µM (inactive) and the GI50 (HOP-62) was > 625 µM (inactive). The GI50 (CCRF-CEM) was > 625 µM (inactive), the GI50 (NCI-H522) was > 625 µM (inactive) and the GI50 (OVCAR-5) was > 625 µM (inactive). The GI50 (HT-29) was > 394 µM (inactive), the GI50 (NCI-H460) was > 625 µM (inactive) and the GI50 (SW-620) was > 625 µM (inactive). For the same molecule, the GI50 (SF-268) was > 625 µM (inactive), the GI50 (KM12) was > 625 µM (inactive) and the GI50 (DMS-273) was > 625 µM (inactive). For the same molecule, the GI50 (OVCAR-3) was > 625 µM (inactive), the GI50 (NCI-H226) was > 625 µM (inactive) and the GI50 (NCI-H23) was > 625 µM (inactive). For the same molecule, the GI50 (SNB-19) was > 625 µM (inactive), the GI50 (SK-MEL-2) was > 394 µM (inactive) and the GI50 (IGROV-1) was > 625 µM (inactive). The GI50 (KM-20L2) was > 625 µM (inactive), the GI50 (DLD-1) was > 625 µM (inactive) and the GI50 (M19-MEL) was > 625 µM (inactive).
`C=CC[C@H](C[C@H](C[C@H](C[C@H](C[C@H](C[C@H](C[C@H](C[C@H](C[C@H](C[C@H](CCCCC)OC)OC)OC)OC)OC)OC)OC)OC)OC)OC` was tested, and the GI50 (SF-295) was > 100 µM (inactive), the GI50 (SK-MEL-28) was > 100 µM (inactive) and the GI50 (SNB-75) was 58.1 µM (inactive). The GI50 (SF-539) was > 100 µM (inactive), the GI50 (A498) was 85.7 µM (inactive) and the GI50 (M14) was > 100 µM (inactive). The GI50 (UACC-257) was 70.8 µM (inactive), the GI50 (MOLT-4) was 41.8 µM (inactive) and the GI50 (A549) was > 100 µM (inactive). For the same molecule, the GI50 (RPMI-8226) was 52.4 µM (inactive), the GI50 (HOP-92) was > 100 µM (inactive) and the GI50 (UACC-62) was > 100 µM (inactive). The GI50 (DMS-114) was 52.6 µM (inactive), the GI50 (COLO 205) was > 100 µM (inactive) and the GI50 (SK-MEL-5) was 52.7 µM (inactive). The GI50 (OVCAR-4) was > 100 µM (inactive), the GI50 (SK-OV-3) was > 100 µM (inactive) and the GI50 (K562) was 70.3 µM (inactive). The GI50 (XF498) was 41.6 µM (inactive), the GI50 (ACHN) was > 100 µM (inactive) and the GI50 (EKVX) was > 100 µM (inactive). The GI50 (HCC 2998) was > 100 µM (inactive), the GI50 (U-251) was > 100 µM (inactive) and the GI50 (SNB-78) was > 100 µM (inactive). For the same molecule, the GI50 (Malme-3M) was > 100 µM (inactive), the GI50 (HCT-116) was 82.6 µM (inactive) and the GI50 (HL-60) was 52.5 µM (inactive). The GI50 (OVCAR-8) was > 100 µM (inactive), the GI50 (UO-31) was 50.7 µM (inactive) and the GI50 (RXF 393) was 66.4 µM (inactive). For the same molecule, the GI50 (CAKI-1) was > 100 µM (inactive), the GI50 (786-0) was > 100 µM (inactive) and the GI50 (LOX IMVI) was > 100 µM (inactive). The GI50 (SN12C) was > 100 µM (inactive), the GI50 (SR) was 36.6 µM (inactive) and the GI50 (HOP-18) was > 100 µM (inactive). For the same molecule, the GI50 (HOP-62) was > 100 µM (inactive), the GI50 (CCRF-CEM) was > 100 µM (inactive) and the GI50 (NCI-H522) was 66.2 µM (inactive). The GI50 (OVCAR-5) was > 100 µM (inactive), the GI50 (HT-29) was > 100 µM (inactive) and the GI50 (NCI-H460) was > 100 µM (inactive). The GI50 (SW-620) was > 100 µM (inactive), the GI50 (SF-268) was > 100 µM (inactive) and the GI50 (KM12) was > 100 µM (inactive). For the same molecule, the GI50 (DMS-273) was > 100 µM (inactive), the GI50 (TK-10) was > 100 µM (inactive) and the GI50 (OVCAR-3) was > 100 µM (inactive). The GI50 (NCI-H226) was 62.2 µM (inactive), the GI50 (NCI-H23) was 98.6 µM (inactive) and the GI50 (SNB-19) was 83.2 µM (inactive). For the same molecule, the GI50 (SK-MEL-2) was > 100 µM (inactive), the GI50 (IGROV-1) was > 100 µM (inactive) and the GI50 (KM-20L2) was > 100 µM (inactive). The GI50 (DLD-1) was > 100 µM (inactive) and the GI50 (M19-MEL) was > 100 µM (inactive).

Reference: ChEMBL document CHEMBL1201862, “PubChem BioAssay data set” (2004)
